Tests used:
[1] = Solubility of the active agent in a typical aqueous formulation; format: physicochemical; settings: room temperature
[2] = Solubility of the active agent in the formulation vehicle; format: physicochemical

## Cc1cc(C)c(C=C2C(=O)Nc3ccccc32)[nH]1 [3-[(2,4-dimethylpyrrol-5-yl)methylene]-2-indolinone]
[1]
  solubility in a typical aqueous formulation: approximately 10 nanograms per milliliter
[2]; vehicle free of polyvinylpyrrolidone
  solubility, drug dissolved in vehicle: about 15 mg/g
[2]; vehicle of the present invention (with polyvinylpyrrolidone)
  solubility, drug dissolved in vehicle: over 30 mg/g

Reference: patent publication US20020119198A1, “Self-emulsifying drug delivery systems for extremely water-insoluble, lipophilic drugs” (priority 2000, published 2002)
